{"source": "paper PMC10518257", "about": "(Nature Cancer, 2023)", "key": {"[1]": {"test_system": "NIH-3T3-CCDC6::RET xenografts", "assay": "Subcutaneous xenograft efficacy study"}, "[2]": {"test_system": "phospho-RET and phospho-ERK in Ba/F3 KIF5B–RET^WT tumors", "assay": "Western blotting of tumors after a single dose (target engagement)", "assay_type": "in vivo, mice", "details": "single dose 50 mg per kg"}, "KDR": {"target": "T1, KDR (Homo sapiens, UniProt P35968)", "T1 construct": "purchased Carna Biosciences", "T1 sequence (P35968 20-1356)": "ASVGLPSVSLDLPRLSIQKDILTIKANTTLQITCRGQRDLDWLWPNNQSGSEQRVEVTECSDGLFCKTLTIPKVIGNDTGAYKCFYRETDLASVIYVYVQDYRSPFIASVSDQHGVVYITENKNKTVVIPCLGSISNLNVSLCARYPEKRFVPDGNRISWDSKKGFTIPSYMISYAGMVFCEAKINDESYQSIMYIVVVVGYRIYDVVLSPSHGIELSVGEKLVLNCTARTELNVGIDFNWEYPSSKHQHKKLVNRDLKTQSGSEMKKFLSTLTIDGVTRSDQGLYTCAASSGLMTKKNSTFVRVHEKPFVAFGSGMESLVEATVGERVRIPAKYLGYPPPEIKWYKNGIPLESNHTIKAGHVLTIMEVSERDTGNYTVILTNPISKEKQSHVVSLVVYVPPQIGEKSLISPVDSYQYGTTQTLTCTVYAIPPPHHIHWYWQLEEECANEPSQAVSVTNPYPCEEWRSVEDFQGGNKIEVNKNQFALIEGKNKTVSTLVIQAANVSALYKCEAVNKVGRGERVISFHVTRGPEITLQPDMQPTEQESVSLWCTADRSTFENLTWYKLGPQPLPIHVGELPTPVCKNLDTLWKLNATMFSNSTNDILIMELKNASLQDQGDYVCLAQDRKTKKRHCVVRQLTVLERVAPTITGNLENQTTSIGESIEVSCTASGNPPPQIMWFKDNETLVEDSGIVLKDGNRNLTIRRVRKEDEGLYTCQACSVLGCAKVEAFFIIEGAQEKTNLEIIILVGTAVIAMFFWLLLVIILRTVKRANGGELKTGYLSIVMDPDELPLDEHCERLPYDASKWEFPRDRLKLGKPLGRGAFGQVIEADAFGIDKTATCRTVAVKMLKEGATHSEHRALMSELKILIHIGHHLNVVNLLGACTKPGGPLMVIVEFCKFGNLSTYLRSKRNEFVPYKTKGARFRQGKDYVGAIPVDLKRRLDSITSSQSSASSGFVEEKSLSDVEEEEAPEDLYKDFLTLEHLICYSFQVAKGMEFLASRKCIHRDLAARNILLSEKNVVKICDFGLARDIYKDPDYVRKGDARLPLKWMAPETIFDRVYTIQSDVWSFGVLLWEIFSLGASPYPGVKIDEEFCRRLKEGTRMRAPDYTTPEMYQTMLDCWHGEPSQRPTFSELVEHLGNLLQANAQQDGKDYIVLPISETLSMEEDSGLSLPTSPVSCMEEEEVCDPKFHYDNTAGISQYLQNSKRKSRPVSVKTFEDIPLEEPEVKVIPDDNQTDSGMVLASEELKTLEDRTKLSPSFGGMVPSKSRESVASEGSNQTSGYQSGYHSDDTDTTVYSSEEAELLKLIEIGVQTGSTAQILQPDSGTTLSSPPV", "assay": "Dose-response IC50 on off-target kinases", "assay_type": "biochemical"}, "[3]": {"target": "T2, panel of 255 (vepafestinib) or 256 (all other inhibitors) recombinant kinases (Homo sapiens, UniProt Q15375)", "T2 construct": "purchased Carna Biosciences", "T2 sequence (Q15375 28-998)": "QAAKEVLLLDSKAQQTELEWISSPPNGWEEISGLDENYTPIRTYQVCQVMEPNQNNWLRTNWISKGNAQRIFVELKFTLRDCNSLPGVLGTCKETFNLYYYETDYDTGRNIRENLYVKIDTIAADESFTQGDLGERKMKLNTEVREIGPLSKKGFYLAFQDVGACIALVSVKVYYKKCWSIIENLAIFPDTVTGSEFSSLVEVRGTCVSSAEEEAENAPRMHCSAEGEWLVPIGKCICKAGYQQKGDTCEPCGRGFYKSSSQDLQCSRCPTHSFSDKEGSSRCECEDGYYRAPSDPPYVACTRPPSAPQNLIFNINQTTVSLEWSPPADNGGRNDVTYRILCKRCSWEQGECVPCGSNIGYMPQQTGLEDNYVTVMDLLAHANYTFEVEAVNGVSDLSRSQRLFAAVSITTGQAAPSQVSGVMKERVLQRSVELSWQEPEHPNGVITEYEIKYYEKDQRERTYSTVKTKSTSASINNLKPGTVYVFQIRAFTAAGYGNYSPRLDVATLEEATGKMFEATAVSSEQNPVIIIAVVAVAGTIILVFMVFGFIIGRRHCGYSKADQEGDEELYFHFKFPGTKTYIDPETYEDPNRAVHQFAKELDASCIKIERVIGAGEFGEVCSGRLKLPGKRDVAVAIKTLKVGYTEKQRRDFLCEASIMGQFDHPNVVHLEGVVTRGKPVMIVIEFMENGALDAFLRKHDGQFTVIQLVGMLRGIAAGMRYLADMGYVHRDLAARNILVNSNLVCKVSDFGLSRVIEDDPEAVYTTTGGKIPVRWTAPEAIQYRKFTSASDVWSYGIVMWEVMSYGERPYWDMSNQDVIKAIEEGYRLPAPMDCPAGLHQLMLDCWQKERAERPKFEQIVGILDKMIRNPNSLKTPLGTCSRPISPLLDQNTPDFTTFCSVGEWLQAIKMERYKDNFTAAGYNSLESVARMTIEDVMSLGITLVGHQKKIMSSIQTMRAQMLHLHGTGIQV", "assay": "Kinase selectivity profiling at a single concentration (Carna Biosciences)", "assay_type": "biochemical", "details": "23 nM"}, "[4]": {"target": "T3, panel of 255 (vepafestinib) or 256 (all other inhibitors) recombinant kinases (Homo sapiens, UniProt Q06418)", "T3 construct": "purchased Carna Biosciences", "T3 sequence (Q06418 41-890)": "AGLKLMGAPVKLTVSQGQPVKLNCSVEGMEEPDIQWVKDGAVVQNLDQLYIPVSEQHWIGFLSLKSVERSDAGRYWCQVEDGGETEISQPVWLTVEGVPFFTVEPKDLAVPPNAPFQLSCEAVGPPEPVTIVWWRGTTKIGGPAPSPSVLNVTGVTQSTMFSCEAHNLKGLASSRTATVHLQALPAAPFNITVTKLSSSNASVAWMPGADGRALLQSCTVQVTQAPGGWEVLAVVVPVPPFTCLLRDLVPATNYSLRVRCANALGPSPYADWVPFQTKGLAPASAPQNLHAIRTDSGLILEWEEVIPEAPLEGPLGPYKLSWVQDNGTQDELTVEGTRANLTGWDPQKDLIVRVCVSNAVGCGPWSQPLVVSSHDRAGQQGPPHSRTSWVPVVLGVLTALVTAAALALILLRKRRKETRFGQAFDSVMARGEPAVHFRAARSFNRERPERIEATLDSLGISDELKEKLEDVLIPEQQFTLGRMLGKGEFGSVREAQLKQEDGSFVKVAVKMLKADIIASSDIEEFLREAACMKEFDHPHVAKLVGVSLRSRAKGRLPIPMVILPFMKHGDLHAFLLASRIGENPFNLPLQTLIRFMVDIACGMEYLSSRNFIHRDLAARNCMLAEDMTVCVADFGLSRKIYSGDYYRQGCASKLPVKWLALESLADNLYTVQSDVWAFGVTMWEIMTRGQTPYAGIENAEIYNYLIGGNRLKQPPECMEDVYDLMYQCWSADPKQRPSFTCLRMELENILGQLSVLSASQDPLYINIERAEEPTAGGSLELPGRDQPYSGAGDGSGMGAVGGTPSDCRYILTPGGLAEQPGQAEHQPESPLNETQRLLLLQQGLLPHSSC", "assay": "Kinase selectivity profiling at a single concentration (Carna Biosciences)", "assay_type": "biochemical", "details": "23 nM"}, "[5]": {"target": "T4, panel of 255 (vepafestinib) or 256 (all other inhibitors) recombinant kinases (Homo sapiens, UniProt P35968)", "T4 construct": "purchased Carna Biosciences", "T4 sequence (P35968 20-1356)": "as the sequence (P35968 20-1356) above", "assay": "Kinase selectivity profiling at a single concentration (Carna Biosciences)", "assay_type": "biochemical", "details": "23 nM"}, "[6]": {"target": "T5, panel of 255 (vepafestinib) or 256 (all other inhibitors) recombinant kinases (Homo sapiens, UniProt O14757)", "T5 construct": "purchased Carna Biosciences", "T5 sequence (O14757 whole entry)": "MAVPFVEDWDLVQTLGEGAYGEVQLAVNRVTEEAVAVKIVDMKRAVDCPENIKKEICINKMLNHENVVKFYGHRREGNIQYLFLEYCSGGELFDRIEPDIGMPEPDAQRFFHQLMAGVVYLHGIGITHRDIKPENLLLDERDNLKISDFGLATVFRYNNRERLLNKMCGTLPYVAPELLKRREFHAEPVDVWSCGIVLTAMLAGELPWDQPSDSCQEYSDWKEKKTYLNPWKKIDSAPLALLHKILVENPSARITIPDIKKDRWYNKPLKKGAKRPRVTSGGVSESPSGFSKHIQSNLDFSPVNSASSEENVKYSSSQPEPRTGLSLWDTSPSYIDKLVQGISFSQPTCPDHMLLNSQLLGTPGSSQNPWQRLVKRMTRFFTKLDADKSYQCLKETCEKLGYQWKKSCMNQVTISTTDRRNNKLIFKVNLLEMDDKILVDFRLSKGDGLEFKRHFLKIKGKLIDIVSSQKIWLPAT", "assay": "Kinase selectivity profiling at a single concentration (Carna Biosciences)", "assay_type": "biochemical", "details": "23 nM"}, "LUAD-0057AS1 PDX": {"test_system": "LUAD-0057AS1 PDX", "assay": "PDX efficacy study", "details": "for Change in Tumor Volume: end of study, individual tumors"}, "LC-2/ad NSCLC xenograft": {"test_system": "LC-2/ad NSCLC xenograft", "assay": "Subcutaneous xenograft efficacy study", "assay_type": "in vivo, BALB/c nude mice"}, "[7]": {"details": "50 mg/kg BID, day 0, individual animals"}, "[8]": {"details": "100 mg/kg QD, day 0, individual animals"}}, "note": "Several values for one entry are separate records, joined by “and”; a condition that tells them apart may be missing. Equal entries are not always repeated.", "data": [{"smiles": "COCc1ccc(NC(=O)c2c(C#CCN3CCOCC3)n(C3(C)CC3)c3ncnc(N)c23)cc1", "note": "[Vepafestinib, 4-amino-N-[4-(methoxymethyl)phenyl]-7-(1-methylcyclopropyl)-6-[3-(morpholin-4-yl)prop-1-yn-1-yl]-7H-pyrrolo[2,3-d]pyrimidine-5-carboxamide]", "values": [{"measurement": "Tumor volume", "setting": "[1]; 25 mg/kg QD, day 0, individual animals", "value": "85.5 mm3 (2×) and 93.59 mm3 and 90.28 mm3 (2×)"}, {"measurement": "Tumor volume", "setting": "[1]; 25 mg/kg QD, day 5, individual animals", "value": "285.69 mm3 and 281.26 mm3 and 438.74 mm3 and 367.92 mm3 and 382.08 mm3"}, {"measurement": "Tumor volume", "setting": "[1]; 25 mg/kg QD, day 8, individual animals", "value": "705.04 mm3 and 750.45 mm3 and 1169.92 mm3 and 945.8 mm3 and 1108.35 mm3"}, {"measurement": "Area Under Curve of tumor growth, Mean", "setting": "[1]; 50 mg/kg BID", "value": 678.7}, {"measurement": "Tumor volume", "setting": "[1]; [7]", "value": 90.28, "unit": "mm3"}, {"measurement": "Tumor volume", "setting": "[1]; 50 mg/kg BID, day 5, individual animals", "value": "225.29 mm3 and 277.15 mm3 and 217.15 mm3 and 205.88 mm3 and 223.64 mm3"}, {"measurement": "Tumor volume", "setting": "[1]; 50 mg/kg BID, day 8, individual animals", "value": "231.59 mm3 and 332.9 mm3 and 291.54 mm3 and 235.62 mm3 (2×)"}, {"measurement": "Tumor volume", "setting": "[1]; 50 mg/kg QD, day 0, individual animals", "value": "93.59 mm3 and 83.97 mm3 (2×) and 85.5 mm3 and 90.28 mm3"}, {"measurement": "Tumor volume", "setting": "[1]; 50 mg/kg QD, day 5, individual animals", "value": "270.08 mm3 and 180.15 mm3 and 189.86 mm3 and 245.54 mm3 and 226.78 mm3"}, {"measurement": "Tumor volume", "setting": "[1]; 50 mg/kg QD, day 8, individual animals", "value": "466.45 mm3 and 389.65 mm3 and 491.45 mm3 and 378.3 mm3 and 446.6 mm3"}, {"measurement": "Area Under Curve of tumor growth, Mean", "setting": "[1]; 100 mg/kg QD", "value": 371}, {"measurement": "Tumor volume", "setting": "[1]; [8]", "value": "83.97 mm3 (4×) and 85.5 mm3"}, {"measurement": "Tumor volume", "setting": "[1]; 100 mg/kg QD, day 5, individual animals", "value": "153.78 mm3 and 149.63 mm3 and 176.28 mm3 and 145.47 mm3 and 154.42 mm3"}, {"measurement": "Tumor volume", "setting": "[1]; 100 mg/kg QD, day 8, individual animals", "value": "153.78 mm3 and 197.55 mm3 and 200.12 mm3 (2×) and 192.42 mm3"}, {"measurement": "duration of complete inhibition of phospho-RET and phospho-ERK in tumors", "setting": "[2]", "value": "at least 8 h"}, {"measurement": "IC50", "setting": "KDR", "value": 172, "unit": "nM"}, {"measurement": "% Inhibiton EPHA7", "setting": "[3]", "value": 10.4, "unit": "%"}, {"measurement": "% Inhibiton TYRO3", "setting": "[4]", "value": 8.6, "unit": "%"}, {"measurement": "% Inhibiton KDR", "setting": "[5]", "value": 36, "unit": "%"}, {"measurement": "% Inhibiton CHK1", "setting": "[6]", "value": 11.9, "unit": "%"}, {"measurement": "tumor shrinkage", "setting": "LUAD-0057AS1 PDX; 50 mg per kg BID", "value": "44% ± 3%"}, {"measurement": "Area Under Curve of tumor growth, Mean", "setting": "LUAD-0057AS1 PDX; 50 mg/kg BID", "value": -1274}, {"measurement": "Tumor volume", "setting": "LUAD-0057AS1 PDX; [7]", "value": "141.55 mm3 and 150.43 mm3 (2×) and 137.16 mm3 and 152.81 mm3 and 132.84 mm3 and 139.24 mm3 and 143.69 mm3"}, {"measurement": "Tumor volume", "setting": "LUAD-0057AS1 PDX; 50 mg/kg BID, day 3, individual animals", "value": "107.44 mm3 and 102.07 mm3 (2×) and 103.92 mm3 and 105.68 mm3 (2×) and 109.36 mm3 and 109.21 mm3"}, {"measurement": "Tumor volume", "setting": "LUAD-0057AS1 PDX; 50 mg/kg BID, day 7, individual animals", "value": "86.78 mm3 and 84.95 mm3 (2×) and 83.53 mm3 and 93.45 mm3 and 76.27 mm3 and 91.61 mm3 and 79.29 mm3"}, {"measurement": "Tumor volume", "setting": "LUAD-0057AS1 PDX; 50 mg/kg BID, day 10, individual animals", "value": "71.99 mm3 and 84.95 mm3 and 77.63 mm3 and 80.7 mm3 (2×) and 69.38 mm3 and 74.9 mm3 and 72.18 mm3"}, {"measurement": "Tumor volume", "setting": "LUAD-0057AS1 PDX; 50 mg/kg BID, day 14, individual animals", "value": "89.72 mm3 and 88.25 mm3 (2×) and 78.99 mm3 and 76.27 mm3 and 80.7 mm3 and 72.18 mm3"}, {"measurement": "Tumor volume", "setting": "LUAD-0057AS1 PDX; 50 mg/kg BID, day 19, individual animals", "value": "80.35 mm3 and 77.63 mm3 and 73.3 mm3 (2×) and 71.99 mm3 and 88.25 mm3 and 72.18 mm3"}, {"measurement": "Tumor volume", "setting": "LUAD-0057AS1 PDX; 50 mg/kg BID, day 23, individual animals", "value": "80.35 mm3 and 82.12 mm3 and 74.61 mm3 and 73.3 mm3 and 71.99 mm3 and 109.29 mm3"}, {"measurement": "Change in Tumor Volume", "setting": "LUAD-0057AS1 PDX; 50 mg/kg BID", "value": "-49.1416% and -46.5865% and -45.4098% and -45.6037% and -52.0319% and -45.807% and -21.5096% and -48.8204%"}, {"measurement": "tumor shrinkage", "setting": "LUAD-0057AS1 PDX; 100 mg per kg QD", "value": "48% ± 1%"}, {"measurement": "Area Under Curve of tumor growth, Mean", "setting": "LUAD-0057AS1 PDX; 100 mg/kg QD", "value": -1469}, {"measurement": "Tumor volume", "setting": "LUAD-0057AS1 PDX; [8]", "value": "145.84 mm3 (3×) and 143.69 mm3 and 141.32 mm3 and 152.81 mm3 and 139.24 mm3 and 148.22 mm3"}, {"measurement": "Tumor volume", "setting": "LUAD-0057AS1 PDX; 100 mg/kg QD, day 3, individual animals", "value": "79.29 mm3 and 83.83 mm3 and 80.7 mm3 (2×) and 91.87 mm3 (3×) and 95.24 mm3"}, {"measurement": "Tumor volume", "setting": "LUAD-0057AS1 PDX; 100 mg/kg QD, day 7, individual animals", "value": "71.99 mm3 and 77.87 mm3 and 69.14 mm3 and 72.18 mm3 and 69.38 mm3 and 74.61 mm3 and 80.7 mm3 and 70.69 mm3"}, {"measurement": "Tumor volume", "setting": "LUAD-0057AS1 PDX; 100 mg/kg QD, day 10, individual animals", "value": "71.99 mm3 and 80.89 mm3 and 66.35 mm3 and 72.18 mm3 and 69.38 mm3 and 74.61 mm3 and 77.87 mm3 and 70.69 mm3"}, {"measurement": "Tumor volume", "setting": "LUAD-0057AS1 PDX; 100 mg/kg QD, day 14, individual animals", "value": "77.63 mm3 (2×) and 83.83 mm3 and 74.61 mm3 (2×) and 69.38 mm3 and 87.03 mm3 and 75.92 mm3"}, {"measurement": "Tumor volume", "setting": "LUAD-0057AS1 PDX; 100 mg/kg QD, day 19, individual animals", "value": "68.09 mm3 and 80.7 mm3 and 73.3 mm3 (2×) and 77.63 mm3 and 74.61 mm3 (2×) and 78.99 mm3"}, {"measurement": "Change in Tumor Volume", "setting": "LUAD-0057AS1 PDX; 100 mg/kg QD", "value": "-49.7394% and -48.9874% and -48.1319% and -52.0319% and -45.2241% and -47.703% and -43.6917% and -45.79%"}, {"measurement": "Tumor Volume (mm3) Mean", "setting": "LC-2/ad NSCLC xenograft; 25 mg/kg BID, day 0", "value": 143.372, "unit": "mm3"}, {"measurement": "Tumor Volume (mm3) Mean", "setting": "LC-2/ad NSCLC xenograft; 25 mg/kg BID, day 4", "value": 128.076, "unit": "mm3"}, {"measurement": "Tumor Volume (mm3) Mean", "setting": "LC-2/ad NSCLC xenograft; 25 mg/kg BID, day 8", "value": 127.413, "unit": "mm3"}, {"measurement": "Tumor Volume (mm3) Mean", "setting": "LC-2/ad NSCLC xenograft; 25 mg/kg BID, day 11", "value": 123.160, "unit": "mm3"}, {"measurement": "Tumor Volume (mm3) Mean", "setting": "LC-2/ad NSCLC xenograft; 25 mg/kg BID, day 15", "value": 151.811, "unit": "mm3"}, {"measurement": "Tumor Volume (mm3) Mean", "setting": "LC-2/ad NSCLC xenograft; 50 mg/kg BID, day 0", "value": 140.580, "unit": "mm3"}, {"measurement": "Tumor Volume (mm3) Mean", "setting": "LC-2/ad NSCLC xenograft; 50 mg/kg BID, day 4", "value": 117.460, "unit": "mm3"}, {"measurement": "Tumor Volume (mm3) Mean", "setting": "LC-2/ad NSCLC xenograft; 50 mg/kg BID, day 8", "value": 119.902, "unit": "mm3"}, {"measurement": "Tumor Volume (mm3) Mean", "setting": "LC-2/ad NSCLC xenograft; 50 mg/kg BID, day 11", "value": 105.200, "unit": "mm3"}, {"measurement": "Tumor Volume (mm3) Mean", "setting": "LC-2/ad NSCLC xenograft; 50 mg/kg BID, day 15", "value": 98.169, "unit": "mm3"}, {"measurement": "Tumor Volume (mm3) Mean", "setting": "LC-2/ad NSCLC xenograft; 50 mg/kg QD, day 0", "value": 140.683, "unit": "mm3"}, {"measurement": "Tumor Volume (mm3) Mean", "setting": "LC-2/ad NSCLC xenograft; 50 mg/kg QD, day 4", "value": 139.893, "unit": "mm3"}, {"measurement": "Tumor Volume (mm3) Mean", "setting": "LC-2/ad NSCLC xenograft; 50 mg/kg QD, day 8", "value": 112.730, "unit": "mm3"}, {"measurement": "Tumor Volume (mm3) Mean", "setting": "LC-2/ad NSCLC xenograft; 50 mg/kg QD, day 11", "value": 118.521, "unit": "mm3"}, {"measurement": "Tumor Volume (mm3) Mean", "setting": "LC-2/ad NSCLC xenograft; 50 mg/kg QD, day 15", "value": 131.887, "unit": "mm3"}]}]}
